Measured values reported in patent US12186400B2, “Micromolecular compound specifically degrading tau protein, and application thereof” (Shanghai Qiangrui Biotech Co., Ltd., priority 2018, dated 2025).

What was measured:
tau protein [1] = biological target: T1, tau protein (Homo sapiens, UniProt P10636); assay: Immunoblot of total tau protein (tau5 antibody) in HEK293 tau cells after 24 h treatment; assay type: cell-based; details: HEK293 tau cells stably expressing wild type full length tau, effect at 1 μM, 10 μM and 20 μM (tested 0, 0.01, 0.1, 1, 10, 20 μM)
T1 construct: HEK293 tau cells (stably expressing wild type full length tau protein); expressed in transfected cells
T1 sequence (P10636 1-441 isoform P10636-8): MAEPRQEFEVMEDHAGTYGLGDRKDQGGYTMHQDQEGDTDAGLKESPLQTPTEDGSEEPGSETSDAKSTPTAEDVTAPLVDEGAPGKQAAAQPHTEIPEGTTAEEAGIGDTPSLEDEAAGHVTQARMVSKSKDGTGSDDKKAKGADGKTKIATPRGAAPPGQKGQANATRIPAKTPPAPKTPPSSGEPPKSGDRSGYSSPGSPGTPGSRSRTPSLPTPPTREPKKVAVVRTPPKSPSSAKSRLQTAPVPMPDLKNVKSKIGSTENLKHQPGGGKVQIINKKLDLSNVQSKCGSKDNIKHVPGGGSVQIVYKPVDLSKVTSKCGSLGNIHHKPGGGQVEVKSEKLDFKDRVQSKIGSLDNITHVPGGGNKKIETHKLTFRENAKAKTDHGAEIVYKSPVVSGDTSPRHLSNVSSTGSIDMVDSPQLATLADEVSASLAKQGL
Protocol: HEK293 tau cells (stably expressing wild type full length tau protein) is subjected to cell culture and pharmaceutical treatment, and after the HEK293 tau cells were cultured in DMEM medium for 24 hours, the micromolecular compounds prepared in the above example with various concentrations (0 μM, 0.01 μM, 0.1 μM, 1 μM, 10 μM, 20 μM) were added, the cells were further cultured for 24 hours. The cells were lysed with RIPA liquid and the cell extraction solution was collected, the proteins in the cell extraction solution were separated with 10% polyacrylamide gel electrophoresis (PAGE), and subsequently immunoblotted with anti-total tau protein antibody (tau5), and the tau protein content was quantitatively analyzed. The detailed operation procedures for preparation of samples, measurement of protein content in the samples, and the immunoblotting process were performed with reference to the following content.
(1) The growth condition and density of cells in the cell culture plates were observed under a microscope;
(2) PBS and cell culture plate were precooled on ice, a mixed liquor consisting of 1× buffer solution+PMSF (1:100)+protease inhibitor cocktail (1:1000) was prepared; 80 μl of the mixed liquor was added into each pore of the 6-well plate, and 150 μl of the mixed liquor was added into a culture dish with a diameter of 6 cm; […]

tau protein [2] = biological target: T1, tau protein; assay: Fluorescence photograph of total tau protein content in HEK293 tau cells; assay type: cell-based; details: different concentrations

With CC(=O)N1CCCN(c2nc(NCCc3cccs3)nc(N(C)CC(=O)NCCOCCOCCOCC(=O)N[C@H](C(=O)N3C[C@H](O)C[C@H]3C(=O)NCc3ccc(-c4scnc4C)cc3)C(C)(C)C)n2)CC1 [Compound 4] the “content of tau protein in cells (immunoblot, quantitative analysis, FIG. 2 and FIG. 3)” value (tau protein [1]) was “dose-dependently reduce the content of tau protein in cells” and the “total tau protein content in the HEK293 tau cells (fluorescence photograph, FIG. 4)” value (tau protein [2]) was “reducing total tau protein content in the HEK293 tau cells”.
